Reference: US11629171B2, “Beta-hairpin peptidomimetics” (POLYPHOR AG, priority 2017, dated 2023)
≈ marks a conversion by molar mass, not a printed value. Where a SMILES comes first, the peptide text is derived from it. Bridges are numbered along the chain shown (N, C = ends). Roman numbers before positions name the chains, in order. [ ]: non-standard residue; d: D form. The star is where a group is joined. Thr(ol) = C[C@@H](O)[C@H](N)CO; Pen = CC(C)(S)[C@H](N)C(=O)O; Tle = CC(C)(C)[C@H](N)C(=O)O; Hiv = CC(C)[C@H](O)C(=O)O; dDab = NCC[C@@H](N)C(=O)O; hSer = N[C@@H](CCO)C(=O)O; NHCH(CH2OH)2 = OCC(CO)N*; Orn = NCCC[C@H](N)C(=O)O; Dab = NCC[C@H](N)C(=O)O; Dap = NC[C@H](N)C(=O)O

Columns and labels:
Type in all cases: cell-based
[1] = test system: Acinetobacter baumannii DSM 30008; conditions: DSM 30008
Outline: (§1)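 Standard CLSI microdilution testing: bacterial suspensions standardized against 0.5 McFarland to about 10^6 CFU/mL in MH-II broth meet serially halved peptide concentrations in broth containing 0.002% polysorbate 80; incubation lasts 18-20 h at 35° C before the MIC is scored.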

[2] = test system: Klebsiella pneumoniae 968733; conditions: 968733
Outline: as §1

[3] = test system: Klebsiella pneumoniae SSI #3010; conditions: SSI #3010
Outline: as §1

[4] = test system: Enterobacter cloacae 848840; conditions: 848840
Outline: as §1

[5] = test system: Escherichia coli ATCC 25922; conditions: ATCC 25922
Outline: as §1

[6] = test system: Acinetobacter baumannii 872842; conditions: 872842
Outline: as §1

[7] = test system: Escherichia coli 926415; conditions: 926415
Outline: as §1

[8] = test system: Pseudomonas aeruginosa ATCC 27853; conditions: ATCC 27853
Outline: as §1

[9] = test system: human red blood cells (hRBC); experiment: Hemolysis; conditions: red cells of human, 1 h, 200
Outline: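 Washed fresh hRBC (20% v/v) were incubated with peptides at 200 μg/mL for 1 h at 37° C with shaking at 300 rpm. Supernatant OD540 was read after centrifugation and dilution, blank-corrected, and expressed as percent of the 2% Triton X-100 (100% lysis) control; PBS with 10% water gave 0%.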

| SMILES | MIC [1] | MIC [2] | MIC [3] | MIC [4] | MIC [5] | MIC [6] | MIC [7] | MIC [8] | Hemolysis at 200 μg/mL [9] |
| --- | --- | --- | --- | --- | --- | --- | --- | --- | --- |
| CC(C)C[C@@H]1NC(=O)[C@@H](CC(C)C)NC(=O)[C@H](CCN)NC(=O)[C@@H](NC(=O)[C@H](CCN)NC(=O)[C@@H](NC(=O)[C@H](CCN)NC(=O)CC[C@@H]2NC(=O)[C@@H](NC(=O)[C@H](Cc3ccc(O)cc3)NC(=O)[C@@H](NC(=O)[C@@H](O)C(C)C)[C@@H](C)O)CSSC[C@@H](C(=O)N[C@H](C(=O)N[C@@H](C)C(=O)N[C@H](CO)[C@@H](C)O)C(C)(C)C)NC(=O)[C@H](Cc3c[nH]c4ccccc34)NC(=O)[C@H](CCO)NC(=O)[C@@H](CCN)NC2=O)[C@@H](C)O)CCNC(=O)[C@H]([C@@H](C)O)NC(=O)[C@H](CCN)NC(=O)[C@H](CCN)NC1=O [Ex. 193] (I: H-[Hiv]TYCE[dDab][hSer]WC[Tle]A[Thr(ol)] / II: [Dab]T[Dab][Dab][Dab][dL]L[Dab][Dab]T; disulfide I:4-I:9; amide I:5-II:N; lactam II:4-II:C) | 0.0625 µg/mL (≈ 0.0262 µM) | 0.5 µg/mL (≈ 0.21 µM) | 0.25 µg/mL (≈ 0.105 µM) | 0.5 µg/mL (≈ 0.21 µM) | 0.125 µg/mL (≈ 0.0524 µM) | 0.5 µg/mL (≈ 0.21 µM) | 0.5 µg/mL (≈ 0.21 µM) | 0.25 µg/mL (≈ 0.105 µM) | <1% |
| CC(C)C[C@@H]1NC(=O)[C@@H](CC(C)C)NC(=O)[C@H](CCN)NC(=O)[C@@H](NC(=O)[C@H](CCN)NC(=O)[C@@H](NC(=O)[C@H](CCN)NC(=O)CC[C@@H]2NC(=O)[C@@H](NC(=O)[C@H](Cc3ccc(O)cc3)NC(=O)[C@@H](NC(=O)[C@@H](O)C(C)C)[C@@H](C)O)C(C)(C)SSC[C@@H](C(=O)N[C@H](C(=O)N[C@@H](C)C(=O)N[C@H](CO)[C@@H](C)O)C(C)(C)C)NC(=O)[C@H](Cc3c[nH]c4ccccc34)NC(=O)[C@H](CCO)NC(=O)[C@@H](CCN)NC2=O)[C@@H](C)O)CCNC(=O)[C@H]([C@@H](C)O)NC(=O)[C@H](CCN)NC(=O)[C@H](CCN)NC1=O [Ex. 194] (I: H-[Hiv]TY[Pen]E[dDab][hSer]WC[Tle]A[Thr(ol)] / II: [Dab]T[Dab][Dab][Dab][dL]L[Dab][Dab]T; disulfide I:4-I:9; amide I:5-II:N; lactam II:4-II:C) | 0.0625 µg/mL (≈ 0.0259 µM) | 0.25 µg/mL (≈ 0.104 µM) | 0.0625 µg/mL (≈ 0.0259 µM) | 0.125 µg/mL (≈ 0.0518 µM) | 0.0625 µg/mL (≈ 0.0259 µM) | 0.25 µg/mL (≈ 0.104 µM) | 0.5 µg/mL (≈ 0.207 µM) | 0.125 µg/mL (≈ 0.0518 µM) | <1% |
| CC(=O)N[C@H](C(=O)N[C@H](C(=O)N[C@@H](Cc1ccc(O)cc1)C(=O)N[C@H]1CSSC[C@@H](C(=O)N[C@H](C(=O)N[C@@H](CCN)C(=O)N[C@H](C(N)=O)C(C)C)C(C)(C)C)NC(=O)[C@H](Cc2c[nH]c3ccccc23)NC(=O)[C@H](CO)NC(=O)[C@@H](CCN)NC(=O)[C@H](CCC(=O)N[C@@H](CCN)C(=O)N[C@H](C(=O)N[C@@H](CN)C(=O)N[C@H]2CCNC(=O)[C@H]([C@@H](C)O)NC(=O)[C@H](CCN)NC(=O)[C@H](CCN)NC(=O)[C@H](CC(C)C)NC(=O)[C@@H](CC(C)C)NC(=O)[C@H](CCN)NC2=O)[C@@H](C)O)NC1=O)[C@@H](C)O)C(C)C [Ex. 206] (I: Ac-VTYCE[dDab]SWC[Tle][Dab]V-NH2 / II: [Dab]T[Dap][Dab][Dab][dL]L[Dab][Dab]T; disulfide I:4-I:9; amide I:5-II:N; lactam II:4-II:C) | 0.0625 µg/mL (≈ 0.0256 µM) | 0.5 µg/mL (≈ 0.205 µM) | 0.0625 µg/mL (≈ 0.0256 µM) | 0.125 µg/mL (≈ 0.0513 µM) | 0.03125 µg/mL (≈ 0.0128 µM) | 0.0625 µg/mL (≈ 0.0256 µM) | 0.0625 µg/mL (≈ 0.0256 µM) | 0.125 µg/mL (≈ 0.0513 µM) | 1% |
| CC(C)C[C@@H]1NC(=O)[C@@H](CC(C)C)NC(=O)[C@H](CCN)NC(=O)[C@@H](NC(=O)[C@H](CN)NC(=O)[C@@H](NC(=O)[C@H](CCN)NC(=O)CC[C@@H]2NC(=O)[C@@H](CCN)NC(=O)[C@H](CCCN)NC(=O)[C@@H](NC(=O)[C@H](Cc3ccc(O)cc3)NC(=O)[C@@H](NC(=O)[C@@H](O)C(C)C)[C@@H](C)O)CSSC[C@@H](C(=O)N[C@H](C(=O)N[C@@H](C)C(=O)N[C@H](CO)[C@@H](C)O)C(C)(C)C)NC(=O)[C@H](Cc3c[nH]c4ccccc34)NC2=O)[C@@H](C)O)CCNC(=O)[C@H]([C@@H](C)O)NC(=O)[C@H](CCN)NC(=O)[C@H](CCN)NC1=O [Ex. 211] (I: H-[Hiv]TYC[Orn][dDab]EWC[Tle]A[Thr(ol)] / II: [Dab]T[Dap][Dab][Dab][dL]L[Dab][Dab]T; disulfide I:4-I:9; amide I:7-II:N; lactam II:4-II:C) | 0.03125 µg/mL (≈ 0.0131 µM) | 0.25 µg/mL (≈ 0.105 µM) | 0.0625 µg/mL (≈ 0.0262 µM) | 2 µg/mL (≈ 0.839 µM) | 0.0625 µg/mL (≈ 0.0262 µM) | 0.0625 µg/mL (≈ 0.0262 µM) | 0.25 µg/mL (≈ 0.105 µM) | 0.125 µg/mL (≈ 0.0524 µM) | <1% |

Second part, led by results:

| MIC [1] | MIC [2] | MIC [3] | MIC [4] | MIC [5] | MIC [6] | MIC [7] | MIC [8] | SMILES | Hemolysis at 200 μg/mL [9] |
| --- | --- | --- | --- | --- | --- | --- | --- | --- | --- |
| 0.0625 µg/mL (≈ 0.0267 µM) | 0.5 µg/mL (≈ 0.213 µM) | 0.125 µg/mL (≈ 0.0533 µM) | 0.25 µg/mL (≈ 0.107 µM) | 0.0625 µg/mL (≈ 0.0267 µM) | 0.25 µg/mL (≈ 0.107 µM) | 0.5 µg/mL (≈ 0.213 µM) | 0.125 µg/mL (≈ 0.0533 µM) | CC(C)C[C@@H]1NC(=O)[C@@H](CC(C)C)NC(=O)[C@H](CCN)NC(=O)[C@@H](NC(=O)[C@H](CN)NC(=O)[C@@H](NC(=O)[C@H](CCN)NC(=O)CC[C@@H]2NC(=O)[C@@H](NC(=O)[C@H](Cc3ccc(O)cc3)NC(=O)[C@@H](NC(=O)[C@@H](O)C(C)C)[C@@H](C)O)CSSC[C@@H](C(=O)N[C@H](C(=O)N[C@@H](C)C(=O)NC(CO)CO)C(C)(C)C)NC(=O)[C@H](Cc3c[nH]c4ccccc34)NC(=O)[C@H](CO)NC(=O)[C@@H](CCN)NC2=O)[C@@H](C)O)CCNC(=O)[C@H]([C@@H](C)O)NC(=O)[C@H](CCN)NC(=O)[C@H](CCN)NC1=O [Ex. 197] (I: H-[Hiv]TYCE[dDab]SWC[Tle]A-{NHCH(CH2OH)2} / II: [Dab]T[Dap][Dab][Dab][dL]L[Dab][Dab]T; disulfide I:4-I:9; amide I:5-II:N; lactam II:4-II:C) | <1% |
| 0.25 µg/mL (≈ 0.105 µM) | 2 µg/mL (≈ 0.838 µM) | 0.25 µg/mL (≈ 0.105 µM) | 2 µg/mL (≈ 0.838 µM) | 0.125 µg/mL (≈ 0.0524 µM) | 0.5 µg/mL (≈ 0.21 µM) | 2 µg/mL (≈ 0.838 µM) | 0.25 µg/mL (≈ 0.105 µM) | CC(C)C[C@@H]1NC(=O)[C@@H](CC(C)C)NC(=O)[C@H](CCN)NC(=O)[C@@H](NC(=O)[C@H](CN)NC(=O)[C@@H](NC(=O)[C@H](CCN)NC(=O)CC[C@H]2NC(=O)[C@H](CCCN)NC(=O)[C@@H](NC(=O)[C@H](Cc3ccc(O)cc3)NC(=O)[C@@H](NC(=O)[C@@H](O)C(C)C)[C@@H](C)O)CSSC[C@@H](C(=O)N[C@H](C(=O)N[C@@H](C)C(=O)N[C@H](CO)[C@@H](C)O)C(C)(C)C)NC(=O)[C@H](Cc3c[nH]c4ccccc34)NC(=O)[C@H]([C@@H](C)O)NC2=O)[C@@H](C)O)CCNC(=O)[C@H]([C@@H](C)O)NC(=O)[C@H](CCN)NC(=O)[C@H](CCN)NC1=O [Ex. 210] (I: H-[Hiv]TYC[Orn][dE]TWC[Tle]A[Thr(ol)] / II: [Dab]T[Dap][Dab][Dab][dL]L[Dab][Dab]T; disulfide I:4-I:9; amide I:6-II:N; lactam II:4-II:C) | <1% |
